According to patent US20210253651A1, “METHOD FOR PRODUCING ORGANIC COMPOUND-ENCAPSULATING FERRITIN” (Ajinomoto Co., Inc., priority 2018, published 2021):
One block for each compound: values may come before it.

Columns and labels:
[1] = cited from earlier work
[2] = single or first pKa value; cited from earlier work
FTH ferritin = biological target: T1, FTH ferritin (Homo sapiens, UniProt P02794); test: one-step process incorporation of small molecule agents into FTH ferritin; format: physicochemical; settings: for Incorporation efficiency (wt %) / Number of agent incorporated: 60 min; for Optimal pH in reaction: pH of buffer giving the largest amount of incorporation within ferritin
T1 construct: made in house; host or cells: Escherichia coli BL21 (DE3), plasmid pET20-FTH
Procedure: All of the reactions were performed in 0.1 mL volume. […] The absorbances were measured using spectrophotometer (DU-800, Beckman Coulter Inc.) for these solutions, and the concentration of contained protein was determined using the protein assay CBB solution (Nacalai Tesque, Inc.) as well as bovine albumin as a standard. Absorbances at 280 nm and 480 nm were measured for Rhodamine B and Congo Red. […] Then, after the absorbances were calibrated based on the absorbances that were derived from the proteins and presumed by the amount of contained protein quantified using the protein assay CBB solution, the concentrations of small molecule agents were determined based on the calibration curves obtained by the absorbances of the molecules. […] As a result, the one-step process enabled incorporating also the small molecule agents with different physical properties such as molecular weight and pKa simply and easily.

T1 sequence (P02794 whole entry): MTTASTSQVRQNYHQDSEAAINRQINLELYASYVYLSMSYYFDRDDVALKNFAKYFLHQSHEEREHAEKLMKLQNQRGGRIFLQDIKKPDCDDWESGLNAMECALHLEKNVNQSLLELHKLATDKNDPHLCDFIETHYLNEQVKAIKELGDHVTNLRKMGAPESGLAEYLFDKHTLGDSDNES

Compound: NC(=O)c1cccnc1 [Nicotinamide]
logP [1]: −0.37 | pKa [2]: 3.35 | Incorporation efficiency (wt %) (FTH ferritin; pH 4, 40° C.): 0.4 wt % | Number of agent incorporated (FTH ferritin; pH 4, 40° C.): 15.6 | Incorporation efficiency (wt %) (FTH ferritin; pH 6, 40° C.): 0.2 wt % | Number of agent incorporated (FTH ferritin; pH 6, 40° C.): 6.8 | Incorporation efficiency (wt %) (FTH ferritin; pH 8, 40° C.): 0.3 wt % | Number of agent incorporated (FTH ferritin; pH 8, 40° C.): 13.9 | Incorporation efficiency (wt %) (FTH ferritin; pH 10, 40° C.): 0.2 wt % | Number of agent incorporated (FTH ferritin; pH 10, 40° C.): 7.6 | Optimal pH in reaction (FTH ferritin): 4

Compound: CN1CC(=O)NC1=N [Creatinine]
logP [1]: −1.6 | pKa [2]: 2.96 | Incorporation efficiency (wt %) (FTH ferritin; pH 4, 20° C.): 0.4 wt % | Number of agent incorporated (FTH ferritin; pH 4, 20° C.): 15.8 | Incorporation efficiency (wt %) (FTH ferritin; pH 4, 60° C.): 0.5 wt % | Number of agent incorporated (FTH ferritin; pH 4, 60° C.): 24.8 | Optimal pH in reaction (FTH ferritin): 4

Compound: Cc1ncc(C[n+]2csc(CCO)c2C)c(N)n1 [Thiamine]
logP [1]: −4.6 | pKa [2]: 5.5 | Incorporation efficiency (wt %) (FTH ferritin; pH 4, 40° C.): 0.8 wt % | Number of agent incorporated (FTH ferritin; pH 4, 40° C.): 11.6 | Incorporation efficiency (wt %) (FTH ferritin; pH 6, 40° C.): 0.9 wt % | Number of agent incorporated (FTH ferritin; pH 6, 40° C.): 13.9 | Incorporation efficiency (wt %) (FTH ferritin; pH 8, 40° C.): 0.9 wt % | Number of agent incorporated (FTH ferritin; pH 8, 40° C.): 13.7 | Incorporation efficiency (wt %) (FTH ferritin; pH 10, 40° C.): 0.9 wt % | Number of agent incorporated (FTH ferritin; pH 10, 40° C.): 13.6 | Optimal pH in reaction (FTH ferritin): 6

Continued, in another order:

Incorporation efficiency (wt %) (FTH ferritin; pH 3, 25° C.): 0.0 wt % | Number of agent incorporated (FTH ferritin; pH 3, 25° C.): 0.2 | Incorporation efficiency (wt %) (FTH ferritin; pH 4, 25° C.): 0.5 wt % | Number of agent incorporated (FTH ferritin; pH 4, 25° C.): 3.7 | Incorporation efficiency (wt %) (FTH ferritin; pH 5, 25° C.): 0.1 wt % | Number of agent incorporated (FTH ferritin; pH 5, 25° C.): 1.0 | Incorporation efficiency (wt %) (FTH ferritin; pH 6, 10° C.): 0.2 wt % | Number of agent incorporated (FTH ferritin; pH 6, 10° C.): 1.4 | Incorporation efficiency (wt %) (FTH ferritin; pH 6, 20° C.): 0.2 wt % | Number of agent incorporated (FTH ferritin; pH 6, 20° C.): 1.4 | Incorporation efficiency (wt %) (FTH ferritin; pH 6, 25° C.): 0.1 wt % | Number of agent incorporated (FTH ferritin; pH 6, 25° C.): 0.9 | Incorporation efficiency (wt %) (FTH ferritin; pH 6, 30° C.): 0.2 wt % | Number of agent incorporated (FTH ferritin; pH 6, 30° C.): 1.6 | Incorporation efficiency (wt %) (FTH ferritin; pH 6, 40° C.): 0.2 wt % | Number of agent incorporated (FTH ferritin; pH 6, 40° C.): 1.7 | Incorporation efficiency (wt %) (FTH ferritin; pH 6, 50° C.): 0.2 wt % | Number of agent incorporated (FTH ferritin; pH 6, 50° C.): 1.8 | Incorporation efficiency (wt %) (FTH ferritin; pH 6, 60° C.): 0.4 wt % | Number of agent incorporated (FTH ferritin; pH 6, 60° C.): 2.8 | Incorporation efficiency (wt %) (FTH ferritin; pH 7, 25° C.): 0.1 wt % | Number of agent incorporated (FTH ferritin; pH 7, 25° C.): 0.7 | Incorporation efficiency (wt %) (FTH ferritin; pH 8, 25° C.): 0.1 wt % | Number of agent incorporated (FTH ferritin; pH 8, 25° C.): 0.8 | Incorporation efficiency (wt %) (FTH ferritin; pH 9, 25° C.): 0.1 wt % | Number of agent incorporated (FTH ferritin; pH 9, 25° C.): 0.8 | Optimal pH in reaction (FTH ferritin): 4
Compound: Nc1c(/N=N/c2ccc(-c3ccc(/N=N/c4cc(S(=O)(=O)[O-])c5ccccc5c4N)cc3)cc2)cc(S(=O)(=O)[O-])c2ccccc12.[Na+].[Na+] [Congo Red]
logP [1]: −1.88 | pKa [2]: 4.1

Number of agent incorporated (FTH ferritin; pH 4, 40° C.): 6.4 | Number of agent incorporated (FTH ferritin; pH 6, 40° C.): 6.5 | Number of agent incorporated (FTH ferritin; pH 8, 40° C.): 6.4 | Number of agent incorporated (FTH ferritin; pH 10, 40° C.): 7.7 | Optimal pH in reaction (FTH ferritin): 10
Compound: Cc1cc2nc3c(=O)[nH]c(=O)nc-3n(C[C@H](O)[C@H](O)[C@H](O)CO)c2cc1C [Riboflavin]
pKa [2]: 10.2
